Measured values from ChEMBL document CHEMBL1201862, “PubChem BioAssay data set” (2004).
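Grown in 96-well plates, cells were treated for 48 hours with each compound at five concentrations. Insufficient inhibition: endpoint recorded as highest concentration tested. Abbreviation: GI50, concentration required for 50% inhibition of growth.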 Active and inactive are the calls of the source. Rule as the data show it: active = GI50 up to about 1.1 µM and inactive = higher.

What was measured:
Assay in all cases: inhibition of tumour cell growth, NCI panel, 48 h
[1] = system: 786-0
[2] = system: A498
[3] = system: A549
[4] = system: ACHN
[5] = system: CAKI-1
[6] = system: CCRF-CEM
[7] = system: COLO 205
[8] = system: DLD-1
[9] = system: DMS-114
[10] = system: DMS-273
[11] = system: EKVX
[12] = system: HCC 2998
[13] = system: HCT-116
[14] = system: HCT-15
[15] = system: HOP-18
[16] = system: HOP-62
[17] = system: HOP-92
[18] = system: HT-29
[19] = system: IGROV-1
[20] = system: K562
[21] = system: KM-20L2
[22] = system: KM12
[23] = system: LOX IMVI
[24] = system: LXFL 529
[25] = system: M14
[26] = system: M19-MEL
[27] = system: Malme-3M
[28] = system: NCI-H226
[29] = system: NCI-H23
[30] = system: NCI-H460
[31] = system: NCI-H522
[32] = system: OVCAR-3
[33] = system: OVCAR-4
[34] = system: OVCAR-5
[35] = system: OVCAR-8
[36] = system: RPMI-8226
[37] = system: RXF 393
[38] = system: RXF 631
[39] = system: SF-268
[40] = system: SF-539
[41] = system: SK-MEL-28
[42] = system: SK-MEL-2
[43] = system: SK-MEL-5
[44] = system: SK-OV-3
[45] = system: SN12C
[46] = system: SNB-19
[47] = system: SNB-75
[48] = system: SNB-78
[49] = system: SW-620
[50] = system: TK-10
[51] = system: U-251
[52] = system: UACC-257
[53] = system: UACC-62
[54] = system: UO-31
[55] = system: BT-549
[56] = system: DU-145
[57] = system: HL-60
[58] = system: Hs-578T
[59] = system: MCF7
[60] = system: MDA-MB-231
[61] = system: MDA-MB-435
[62] = system: MDA-N
[63] = system: MOLT-4
[64] = system: NCI/ADR-RES
[65] = system: PC-3
[66] = system: SF-295
[67] = system: SR
[68] = system: T47D
[69] = system: XF498

Cc1cc(Cl)ccc1NC(=O)C(=O)C(C(=O)c1ccc2ccccc2c1)C1OC(=O)c2ccccc21 (stereo not drawn)
GI50 [1]: 8.91 µM (inactive)
GI50 [2]: 7.48 µM (inactive)
GI50 [3]: 21.3 µM (inactive)
GI50 [4]: 23.2 µM (inactive)
GI50 [5]: 11.6 µM (inactive)
GI50 [6]: 1.11 µM (active)
GI50 [7]: 13.2 µM (inactive)
GI50 [8]: 14.3 µM (inactive)
GI50 [9]: 6.15 µM (inactive)
GI50 [10]: 12.4 µM (inactive)
GI50 [11]: 29.2 µM (inactive)
GI50 [12]: 10.2 µM (inactive)
GI50 [13]: 9.4 µM (inactive)
GI50 [14]: 18.7 µM
GI50 [15]: 0.544 µM (active)
GI50 [16]: 10.5 µM (inactive)
GI50 [17]: 14.3 µM (inactive)
GI50 [18]: 28.4 µM (inactive)
GI50 [19]: 20.8 µM (inactive)
GI50 [20]: 8.61 µM (inactive)
GI50 [21]: 24 µM (inactive)
GI50 [22]: 17 µM (inactive)
GI50 [23]: 13.2 µM (inactive)
GI50 [24]: 6.47 µM (inactive)
GI50 [25]: 16 µM (inactive)
GI50 [26]: 10.1 µM (inactive)
GI50 [27]: 10 µM (inactive)
GI50 [28]: 2.3 µM (inactive)
GI50 [29]: 6.73 µM (inactive)
GI50 [30]: 6.93 µM (inactive)
GI50 [31]: 7.06 µM (inactive)
GI50 [32]: 9.98 µM (inactive)
GI50 [33]: 7.6 µM (inactive)
GI50 [34]: 18.6 µM (inactive)
GI50 [35]: 14.1 µM (inactive)
GI50 [36]: 3.1 µM (inactive)
GI50 [37]: 1.83 µM (inactive)
GI50 [38]: 7.89 µM (inactive)
GI50 [39]: 4.08 µM (inactive)
GI50 [40]: 4.48 µM (inactive)
GI50 [41]: 9.79 µM (inactive)
GI50 [42]: 12.8 µM (inactive)
GI50 [43]: 12.7 µM (inactive)
GI50 [44]: 15.7 µM (inactive)
GI50 [45]: 15.7 µM (inactive)
GI50 [46]: 3.87 µM (inactive)
GI50 [47]: 10.1 µM (inactive)
GI50 [48]: 10.3 µM (inactive)
GI50 [49]: 7.87 µM (inactive)
GI50 [50]: > 10 µM (inactive)
GI50 [51]: 4.95 µM (inactive)
GI50 [52]: 16.1 µM (inactive)
GI50 [53]: 8.67 µM (inactive)
GI50 [54]: 12.9 µM (inactive)

COc1ccc2c(c1)[C@@H](NC(C)=O)CCc1cc(OC)c(OC)c(OC)c1-2
GI50 [1]: 0.019 µM (active)
GI50 [2]: 0.0143 µM (active)
GI50 [3]: 0.0176 µM (active)
GI50 [4]: 0.0179 µM (active)
GI50 [55]: 1.85 µM (inactive)
GI50 [5]: 0.0206 µM (active)
GI50 [6]: 0.0398 µM (active)
GI50 [7]: 0.0135 µM (active)
GI50 [8]: < 0.0138 µM (active)
GI50 [9]: 0.0118 µM (active)
GI50 [10]: < 0.01 µM (active)
GI50 [56]: 0.0185 µM (active)
GI50 [11]: 8.34 µM (inactive)
GI50 [12]: 0.0174 µM (active)
GI50 [13]: 0.0148 µM (active)
GI50 [14]: 0.015 µM
GI50 [57]: < 0.012 µM (active)
GI50 [15]: > 100 µM (inactive)
GI50 [16]: 0.0216 µM (active)
GI50 [17]: 0.0219 µM (active)
GI50 [18]: 0.0146 µM (active)
GI50 [58]: 0.0169 µM (active)
GI50 [19]: 0.0173 µM (active)
GI50 [20]: 0.0128 µM (active)
GI50 [21]: 0.0117 µM (active)
GI50 [22]: 0.0131 µM (active)
GI50 [23]: 0.018 µM (active)
GI50 [24]: < 0.0137 µM (active)
GI50 [25]: 0.0166 µM (active)
GI50 [26]: < 0.0154 µM (active)
GI50 [59]: 0.0463 µM (active)
GI50 [60]: 0.0228 µM (active)
GI50 [61]: 0.0132 µM (active)
GI50 [62]: 0.0128 µM (active)
GI50 [63]: 0.0206 µM (active)
GI50 [27]: 0.0216 µM (active)
GI50 [28]: 0.0891 µM (active)
GI50 [29]: 0.0143 µM (active)
GI50 [30]: 0.0168 µM (active)
GI50 [31]: 0.013 µM (active)
GI50 [64]: 0.0198 µM (active)
GI50 [32]: 0.0144 µM (active)
GI50 [33]: 9.84 µM (inactive)
GI50 [34]: 1.5 µM (inactive)
GI50 [35]: 0.0157 µM (active)
GI50 [65]: 0.0251 µM (active)
GI50 [36]: 0.0206 µM (active)
GI50 [37]: 0.0151 µM (active)
GI50 [39]: 0.0154 µM (active)
GI50 [66]: 0.0151 µM (active)
GI50 [40]: 0.013 µM (active)
GI50 [41]: < 0.017 µM (active)
GI50 [42]: 0.0174 µM (active)
GI50 [43]: 0.019 µM (active)
GI50 [44]: 0.129 µM (active)
GI50 [45]: 0.02 µM (active)
GI50 [46]: 0.0222 µM (active)
GI50 [47]: 0.0258 µM (active)
GI50 [48]: 0.0107 µM (active)
GI50 [67]: 0.0834 µM (active)
GI50 [49]: 0.0172 µM (active)
GI50 [68]: > 100 µM (inactive)
GI50 [50]: 2.54 µM (inactive)
GI50 [51]: 0.0173 µM (active)
GI50 [52]: 0.108 µM (active)
GI50 [53]: 0.0154 µM (active)
GI50 [54]: 0.0296 µM (active)
GI50 [69]: 0.0137 µM (active)

CCc1ccc(Cc2ccc(CC)c(NC(=O)C(=O)C3NC(=S)NC3=O)c2CC)c(CC)c1NC(=O)C(=O)C1NC(=S)NC1=O (stereo not drawn)
GI50 [1]: > 100 µM (inactive)
GI50 [2]: > 100 µM (inactive)
GI50 [3]: > 100 µM (inactive)
GI50 [4]: > 100 µM (inactive)
GI50 [5]: > 100 µM (inactive)
GI50 [6]: > 100 µM (inactive)
GI50 [7]: > 100 µM (inactive)
GI50 [8]: > 100 µM (inactive)
GI50 [10]: > 100 µM (inactive)
GI50 [11]: > 100 µM (inactive)
GI50 [12]: > 100 µM (inactive)
GI50 [13]: > 100 µM (inactive)
GI50 [14]: > 100 µM
GI50 [57]: > 100 µM (inactive)
GI50 [16]: > 100 µM (inactive)
GI50 [17]: 38 µM (inactive)
GI50 [19]: > 100 µM (inactive)
GI50 [20]: > 100 µM (inactive)
GI50 [21]: > 100 µM (inactive)
GI50 [22]: > 100 µM (inactive)
GI50 [23]: > 100 µM (inactive)
GI50 [24]: > 100 µM (inactive)
GI50 [25]: > 100 µM (inactive)
GI50 [26]: > 100 µM (inactive)
GI50 [63]: > 100 µM (inactive)
GI50 [27]: > 100 µM (inactive)
GI50 [29]: > 100 µM (inactive)
GI50 [30]: > 100 µM (inactive)
GI50 [31]: > 100 µM (inactive)
GI50 [32]: > 100 µM (inactive)
GI50 [33]: > 100 µM (inactive)
GI50 [34]: > 100 µM (inactive)
GI50 [35]: > 100 µM (inactive)
GI50 [36]: > 100 µM (inactive)
GI50 [37]: > 100 µM (inactive)
GI50 [38]: > 100 µM (inactive)
GI50 [39]: > 100 µM (inactive)
GI50 [40]: > 100 µM (inactive)
GI50 [41]: > 100 µM (inactive)
GI50 [42]: > 100 µM (inactive)
GI50 [43]: > 100 µM (inactive)
GI50 [44]: > 100 µM (inactive)
GI50 [46]: > 100 µM (inactive)
GI50 [47]: 35.2 µM (inactive)
GI50 [48]: > 100 µM (inactive)
GI50 [49]: > 100 µM (inactive)
GI50 [50]: > 100 µM (inactive)
GI50 [51]: > 100 µM (inactive)
GI50 [52]: > 100 µM (inactive)
GI50 [53]: > 100 µM (inactive)
GI50 [54]: 51.8 µM (inactive)
